Tests used:
CDK1/CyclinB1 = CDK1/CyclinB1 (Homo sapiens (Human), UniProt P06493); test: CDK1 kinase assay (TR-FRET); assay type: biochemical; conditions: CDK1/CyclinB 7.5 nM, ATP 17 μM
Procedure: The purpose of these assays is to evaluate the inhibition of small molecule inhibitors by using TR-FRET assay.
Compound Preparation. Dissslove the compounds into DMSO solution to make 10 mM DMSO stock. Serially dilute the stock solution from highest concentration down to lowest in DMSO to make the compound stock plate (100× stock plates). To make 5× compound intermediate plate, add 38 μL of assay buffer (50 mM HEPES, pH 7.5, 0.05 mg/mL BSA, 10 mM MgCl2, 1 mM EGTA, 0.01% Tween-20, 2 mM DTT) into each well of the V-bottom plate; then transfer 2 μL of the stock compound solution of each concentration from the compound stock plate (100× stock), and mix well.
Enzyme reaction. Transfer 2 μL compound from 5× intermediate plate into assay plate, then add 4 μL/well 2.5× Enzyme mix to assay plate, incubation for 10 min at room temperature. For positive control wells, add 4 μL/well assay buffer instead of Enzyme mix. Then add 4 μL/well 2.5× Substrate mix to assay plate, and incubation at 25° C. for 30 min at room temperature. After reaction, 10 μL 2× Detection mix (final 15 mM EDTA, 1× LANCE Detection Buffer, 0.5 nM Detection antibody) was added and incubated for 1 h prior to detection with excitation and emission at 320 and 665 nm (Tecan Spark® TR-FRET mode Tecan).
Inhibition rate (IR) of the tested compounds was determined by the following formula: IR (%)=(average High control−compound well)/(average High control−average Low control)*100%. Fit the compound IC50 from non-linear regression equation: Y=Bottom+(Top−Bottom)/(1+10^((Log IC50−X)*HillSlope)). X: Log of cpd concentration; Y: Inhibition rate (TR); Top and Bottom: Plateaus in same units as Y, log IC50: same log units as X; HillSlope: Slope factor or Hill slope.

CDK2/CyclinE1 = CDK2/CyclinE1 (Homo sapiens (Human), UniProt P24941); test: CDK2 kinase assay (TR-FRET); assay type: biochemical; conditions: CDK2/CyclinE1 0.5 nM, ATP 50 μM
In short: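 Compounds were preincubated 10 min at room temperature with enzyme in 50 mM HEPES pH 7.5, 10 mM MgCl2, 1 mM EGTA, 2 mM DTT, 0.01% Tween-20, BSA. Substrate reaction ran 30 min at 25 °C, was stopped with EDTA and read by LANCE TR-FRET (ex 320/em 665 nm) after 1 h. IC50 came from a four-parameter fit of % inhibition.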

Chain of CDK1/CyclinB1 (P06493 whole entry): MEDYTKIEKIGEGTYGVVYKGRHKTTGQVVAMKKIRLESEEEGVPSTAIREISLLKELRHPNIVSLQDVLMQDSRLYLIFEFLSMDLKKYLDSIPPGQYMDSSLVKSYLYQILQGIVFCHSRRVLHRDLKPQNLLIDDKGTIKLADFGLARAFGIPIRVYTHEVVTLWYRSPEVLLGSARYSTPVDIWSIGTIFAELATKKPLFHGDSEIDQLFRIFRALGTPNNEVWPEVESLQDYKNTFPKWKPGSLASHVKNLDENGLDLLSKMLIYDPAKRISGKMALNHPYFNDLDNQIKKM
Chain of CDK1/CyclinB1 (P14635 whole entry partner): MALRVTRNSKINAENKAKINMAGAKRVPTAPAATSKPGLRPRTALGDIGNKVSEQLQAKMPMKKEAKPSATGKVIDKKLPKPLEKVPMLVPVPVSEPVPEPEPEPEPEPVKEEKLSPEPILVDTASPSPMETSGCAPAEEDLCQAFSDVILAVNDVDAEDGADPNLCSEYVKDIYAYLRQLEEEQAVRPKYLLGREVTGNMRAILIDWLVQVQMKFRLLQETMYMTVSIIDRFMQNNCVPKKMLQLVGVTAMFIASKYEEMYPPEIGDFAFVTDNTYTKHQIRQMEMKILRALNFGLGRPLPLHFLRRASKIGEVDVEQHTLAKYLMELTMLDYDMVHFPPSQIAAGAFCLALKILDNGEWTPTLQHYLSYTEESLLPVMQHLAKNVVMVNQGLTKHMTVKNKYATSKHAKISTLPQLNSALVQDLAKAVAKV

SMILES | IC50 (CDK1/CyclinB1) | IC50 (CDK2/CyclinE1)
CC(C)NC(=O)O[C@@H]1CC[C@H](C2=CC(NC(=O)[C@H]3C[C@@H]3[C@H](C)O)=NC2)C1 [Compound 136] | 64.6 nM | 1.2 nM
Cn1nccc1C(=O)Nc1cc([C@@H]2C[C@H](OC(=O)NC(C)(C)C)CO2)[nH]n1 [Compound 102] | 133 nM | 2.5 nM
CC(C)NC(=O)O[C@@H]1CC[C@H](c2cc(NC(=O)C34CC(C(=O)NO)(C3)C4)n[nH]2)C1 [Compound 126] | 142 nM | 2.5 nM
O=C(NC12CC(F)(C1)C2)O[C@@H]1CC[C@H](c2cc(NC(=O)[C@@H]3CCN(S(=O)(=O)C4CC4)C3)n[nH]2)C1 [Compound 181] | 34.4 nM | 0.8 nM
Cn1nccc1C(=O)Nc1cc([C@H]2CC[C@@H](OC(=O)NC3COC4(CCC4)C3)C2)[nH]n1 (single isomer, unassigned) [Compound 44] | 255 nM | 3.2 nM
Cn1nccc1C(=O)Nc1cc([C@H]2C[C@@H](OC(=O)NC3CCC3)CO2)[nH]n1 [Compound 122] | 89.4 nM | 1.9 nM
CC1(NC(=O)OC2COC(c3cc(NC(=O)Cc4cc(F)cc(F)c4)n[nH]3)C2)CCOC1 (centres unmarked) [Compound 53] | 134 nM | 2.1 nM
CC(C)NC(=O)O[C@H]1CO[C@@H](c2cc(NC(=O)Cc3ccccc3S(C)(=O)=O)n[nH]2)C1 [Compound 134] |  | 2.2 nM
Cn1nccc1C(=O)Nc1cc([C@@H]2C[C@H](OC(=O)NC3(C)CC3)CO2)[nH]n1 [Compound 95] |  | 3.7 nM
C#CC1(NC(=O)O[C@H]2CO[C@@H](c3cc(NC(=O)c4ccnn4C)n[nH]3)C2)CCC1 [Compound 189] | 58.6 nM | 1 nM
CCC1(NC(=O)O[C@@H]2CO[C@H](c3cc(NC(=O)c4ccnn4C)n[nH]3)C2)CCC1 [Compound 178] |  | 1.4 nM
CCc1cc(C(=O)Nc2cc([C@H]3C[C@@H](OC(=O)NC(C)C)CO3)[nH]n2)n(C)n1 [Compound 79] |  | 7.6 nM
CC(C)NC(=O)OC1COC(c2cc(NC(=O)Cc3cc(F)cc(F)c3)n[nH]2)C1 (centres unmarked) [Compound 24] | 102 nM | 1.8 nM
C#C[C@H]1C[C@@H]1C(=O)Nc1cc([C@@H]2CC[C@H](OC(=O)NC3(C)CCC3)C2)[nH]n1 [Compound 219] |  | 0.5 nM
COCc1cc(C(=O)Nc2n[nH]c([C@H]3CC[C@@H](OC(=O)NC(C)C)C3)c2F)n(C)n1 [Compound 10] |  | 92.4 nM
C#C[C@H]1C[C@@H]1C(=O)Nc1cc([C@H]2C[C@@H](OC(=O)NC3(C)CCC3)CO2)[nH]n1 [Compound 158] |  | 1.1 nM
CC(C)NC(=O)O[C@@H]1CC[C@H](c2cc(NC(=O)C3CC(C)N(S(C)(=O)=O)C3)n[nH]2)C1 (single isomer, unassigned) [Compound 144] |  | 4.3 nM
CCC(C)(C)NC(=O)O[C@H]1CO[C@@H](c2cc(NC(=O)c3ccnn3C)n[nH]2)C1 [Compound 190] |  | 0.6 nM
COC[C@H]1C[C@@H]1C(=O)Nc1cc([C@@H]2CC[C@H](OC(=O)NC3(C)CC3)C2)[nH]n1 [Compound 184] |  | 0.5 nM
CC(C)NC(=O)O[C@H]1CO[C@@H](c2cc(NC(=O)c3cc(C4CC4)nn3C)n[nH]2)C1 [Compound 80] |  | 15.4 nM
Cc1occc1C(=O)Nc1cc([C@H]2C[C@@H](OC(=O)NC(C)C)CO2)[nH]n1 [Compound 129] |  | 11.8 nM
CC(C)NC(=O)O[C@@H]1CC[C@H](c2cc(NC(=O)C3CC4CCC3O4)n[nH]2)C1 (single isomer, unassigned) [Compound 146] |  | 44.3 nM
CC(C)NC(=O)O[C@@H]1CC[C@H](c2cc(NC(=O)[C@H]3CCN(C(=O)C(C)C)C3)n[nH]2)C1 [Compound 14] |  | 1.7 nM
CC(C)NC(=O)O[C@@H]1CC[C@H](c2cc(NC(=O)C3CC3C#N)n[nH]2)C1 (single isomer, unassigned) [Compound 117] |  | 3.8 nM
CC(C)NC(=O)O[C@@H]1CC[C@H](c2cc(NC(=O)[C@H]3C[C@@H]3C#CC(F)F)n[nH]2)C1 [Compound 161] |  | 1 nM
CC(C)NC(=O)O[C@@H]1CC[C@H](c2cc(NC(=O)[C@H]3CCN(CC(F)F)C3)n[nH]2)C1 [Compound 13] |  | 5.8 nM
